From patent publication US20250241926A1, “HETEROCYCLIC COMPOUNDS FOR USE IN THE TREATMENT OF CANCER” (ARTIOS PHARMA LIMITED, priority 2021, published 2025)
Read-outs that look alike come from different tables or passages of the source.

Target: T1, Human Polθ polymerase domain (aa1820-2590) (Homo sapiens, UniProt O75417)
T1 construct: Human Polθ polymerase domain (aa1820-2590) was expressed in E. Coli; made in house; host or cells: E. coli
T1 sequence (O75417 1820-2590): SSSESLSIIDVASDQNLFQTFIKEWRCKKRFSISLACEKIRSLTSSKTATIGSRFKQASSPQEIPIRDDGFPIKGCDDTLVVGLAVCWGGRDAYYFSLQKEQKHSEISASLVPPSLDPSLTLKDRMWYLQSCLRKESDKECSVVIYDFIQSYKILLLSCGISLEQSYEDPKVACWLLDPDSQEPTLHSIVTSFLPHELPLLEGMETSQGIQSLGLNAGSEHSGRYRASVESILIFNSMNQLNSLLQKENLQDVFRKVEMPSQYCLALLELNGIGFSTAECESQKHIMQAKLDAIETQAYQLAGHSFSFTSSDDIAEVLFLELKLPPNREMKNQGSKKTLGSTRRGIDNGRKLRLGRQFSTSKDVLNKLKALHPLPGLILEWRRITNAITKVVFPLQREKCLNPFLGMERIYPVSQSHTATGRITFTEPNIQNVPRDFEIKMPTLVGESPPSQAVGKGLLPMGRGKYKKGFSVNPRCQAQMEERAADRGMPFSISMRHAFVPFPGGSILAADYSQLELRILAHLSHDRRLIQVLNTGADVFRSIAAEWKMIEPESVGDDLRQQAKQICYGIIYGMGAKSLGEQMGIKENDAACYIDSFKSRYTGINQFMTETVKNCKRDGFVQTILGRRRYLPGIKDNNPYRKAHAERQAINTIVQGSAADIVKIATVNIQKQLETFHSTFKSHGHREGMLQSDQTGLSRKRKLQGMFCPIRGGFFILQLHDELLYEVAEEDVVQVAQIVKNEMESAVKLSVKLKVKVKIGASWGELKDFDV
Assay: Polθ Polymerase Domain Kinact/Kl Assay (PicoGreen)
Assay type: biochemical
Conditions: covalent inhibitors, kobs vs [I] fit, 0.8 nM Polθ, 100 nM DNA substrate
Description: Polθ Polymerase Domain Kinact/Kl Assay
A PicoGreen assay was used to measure the Kinact and Kl values of covalent compounds that inhibit the activity of Polθ in vitro.
Human Polθ polymerase domain (aa1820-2590) was expressed in E. Coli, purified, aliquoted and stored at −80° C. until required. Polθ substrate was generated from a 1.2:1 mix of DNA II Short to DNA II Long to give a final concentration of […] substrate in annealing buffer (20 mM Tris pH 7.5, 50 mM NaCl). The substrate was heated in 50 mL aliquots to 95° C. in a heating block for 5 min before the heating block switched off, the reaction left to cool to rt and stored at −20° C. until required.
Assay measurements were performed with 1× buffer comprising 25 mM Tris pH 7.5, 12.5 mM NaCl, […], 5% (v/v) glycerol, 0.01% v/v Triton x-100, 0.1 mg/ml BSA, 1 mM DTT. Test compounds were prepared by dilution in 100% DMSO to give a 12 μM intermediate stock of each (100× final top concentration). 100 nL of 23× 1:1.5-fold serial dilutions and a DMSO only control were dispensed using the Tecan dispenser into Greiner 384 well black low volume plates (product code 784076). DMSO concentration was maintained at 1% of the final assay volume by back filling with DMSO.
2× Working stock of substrate (200 nM of DNA substrate and […] dNTPs) and enzyme (1.4 nM Polθ) were made up in assay buffer. 5 μL/well of both enzyme and substrate 2× solutions were dispensed using a Tempest dispenser (Formulatrix) into assay plates that had been pre-dispensed with compound to give a final assay concentration of 100 nM DNA substrate, […] dNTPs and 0.8 nM Polθ. To stop the reaction, […] of a solution containing 25 mM Tris-HCl pH 7.5 and 20 mM EDTA was added at […] (t=0, 2.5, 5, 7.5, 10, 12.5, 15, 20, 25, 30, 35, 40, 45, 50, 55 and 60 min) using the Tempest's time delay function. The plates were covered during the time course to prevent evaporation. After completing the assay, 5 μL of detection reagent (25 mM Tris-HCl pH 7.5 and 2.5% (v/v) PicoGreen) was dispensed into the wells using a Tempest liquid handler (Formulatrix) and plates subsequently read on the CLARIOstar Plus (BMG Labtech) using the default optical settings for fluorescein and the auto gain/focus settings.
All data analysis was carried out using GraphPad Prism V. 8 (GraphPad Software Inc, San Diego, CA) Time course data for each inhibitor concentration was fitted to equation 1 to determine kobs values.^1 Any time points where the control (DMSO alone) reaction was no longer linear were excluded from the analysis.
A secondary plot of kobs vs [I] is used to determine the Kinact and Kl parameters (for a 2-step covalent inhibitor) by fitting to equation 2.1
[formula] • 1) Evaluation of Enzyme Inhibitors in Drug Discovery (Ch9), R. A Copeland, Wiley, 2nd Edition 2013.

kinact/KI (read-out: Kinact/KI) [M⁻¹ s⁻¹]	kinact/KI [M⁻¹ s⁻¹]	Molecule
980000		C=CC(=O)N1CC2(CN(CCN3CC[C@H](Nc4nc(C)cc(C(F)(F)F)c4C#N)C(=O)N(C)c4cccc(F)c43)CCN2C)C1 [Example 6, (S)-2-((6-(2-(2-Acryloyl-5-methyl-2,5,8-triazaspiro[3.5]nonan-8-yl)ethyl)-7-fluoro-1-methyl-2-oxo-1,2,3,4,5,6-hexahydrobenzo[b][1,4]diazocin-3-yl)amino)-6-methyl-4-(trifluoromethyl)nicotinonitrile]
1.4e+06		Cc1cc(C(F)(F)F)c(C#N)c(N[C@H]2CCN(CCCOC3CN(C(=O)/C=C/CN(C)C)C3)c3ccccc3N(C)C2=O)n1 [Example 41, (S, E)-2-((6-(3-((1-(4-(Dimethylamino)but-2-enoyl)azetidin-3-yl)oxy)propyl)-1-methyl-2-oxo-1,2,3,4,5,6-hexahydrobenzo[b][1,4]diazocin-3-yl)amino)-6-methyl-4-(trifluoromethyl)nicotinonitrile]
240000		Cc1cc(C(F)(F)F)c(C#N)c(N[C@H]2CCN(C[C@H]3CN(C4CN(C(=O)/C=C/CN(C)C)C4)CCO3)c3c(F)cccc3N(C)C2=O)n1 [Example 60, 2-(((S)-6-(((R)-4-(1-((E)-4-(Dimethylamino)but-2-enoyl)azetidin-3-yl)morpholin-2-yl)methyl)-7-fluoro-1-methyl-2-oxo-1,2,3,4,5,6-hexahydrobenzo[b][1,4]diazocin-3-yl)amino)-6-methyl-4-(trifluoromethyl)nicotinonitrile]
340000		C=CC(=O)N1CCN(CC(O)CN2CC[C@H](Nc3nc(C)cc(C(F)(F)F)c3C#N)C(=O)N(C)c3ccccc32)CC1 (stereo partly drawn) [Example 35, 2-(((3S)-6-(3-(4-Acryloylpiperazin-1-yl)-2-hydroxypropyl)-1-methyl-2-oxo-1,2,3,4,5,6-hexahydrobenzo[b][1,4]diazocin-3-yl)amino)-6-methyl-4-(trifluoromethyl)nicotinonitrile]
300000		Cc1cc(C(F)(F)F)c(C#N)c(N[C@H]2CCN(CCN3CC4(C3)CN(C(=O)/C=C/CN(C)C)C4)c3ccccc3N(C)C2=O)n1 [Example 4, (S,E)-2-((6-(2-(6-(4-(Dimethylamino)but-2-enoyl)-2,6-diazaspiro[3.3]heptan-2-yl)ethyl)-1-methyl-2-oxo-1,2,3,4,5,6-hexahydrobenzo[b][1,4]diazocin-3-yl)amino)-6-methyl-4-(trifluoromethyl)nicotinonitrile]
	460000	C=CC(=O)N1CC(O[C@@H]2CN(CCN3CC[C@H](Nc4nc(C)cc(C(F)(F)F)c4C#N)C(=O)N(C)c4cccc(F)c43)C[C@H]2O)C1 [Example 65A, 2-(((S)-6-(2-((3S/R,4S/R)-3-((1-Acryloylazetidin-3-yl)oxy)-4-hydroxypyrrolidin-1-yl)ethyl)-7-fluoro-1-methyl-2-oxo-1,2,3,4,5,6-hexahydrobenzo[b][1,4]diazocin-3-yl)amino)-6-methyl-4-(trifluoromethyl)nicotinonitrile]
1.2e+06		Cc1cc(C(F)(F)F)c(C#N)c(N[C@H]2CCN(CCN(C)C(=O)C3CN(C(=O)/C=C/CN(C)C)C3)c3c(F)cccc3N(C)C2=O)n1 [Example 29, (S,E)-N-(2-(4-((3-Cyano-6-methyl-4-(trifluoromethyl)pyridin-2-yl)amino)-10-fluoro-6-methyl-5-oxo-3,4,5,6-tetrahydrobenzo[b][1,4]diazocin-1(2H)-yl)ethyl)-1-(4-(dimethylamino)but-2-enoyl)-N-methylazetidine-3-carboxamide]
150000		C=CC(=O)N1CC2(CC(CN3CC[C@H](Nc4nc(C)cc(C(F)(F)F)c4C#N)C(=O)N(C)c4ccccc43)C2)C1 [Example 52, (S)-2-((6-((2-Acryloyl-2-azaspiro[3.3]heptan-6-yl)methyl)-1-methyl-2-oxo-1,2,3,4,5,6-hexahydrobenzo[b][1,4]diazocin-3-yl)amino)-6-methyl-4-(trifluoromethyl)nicotinonitrile]
1.1e+07		COCCN(C)C/C=C/C(=O)N1CC(OCCCN2CC[C@H](Nc3nc(C)cc(C(F)(F)F)c3C#N)C(=O)N(C)c3cccc(F)c32)C1 [Example 56, (S,E)-2-((7-Fluoro-6-(3-((1-(4-((2-methoxyethyl)(methyl)amino)but-2-enoyl)azetidin-3-yl)oxy)propyl)-1-methyl-2-oxo-1,2,3,4,5,6-hexahydrobenzo[b][1,4]diazocin-3-yl)amino)-6-methyl-4-(trifluoromethyl)nicotinonitrile]
	380000	2-(((3S)-6-(2-(7- ((E)-4-(Dimethyl- amino)but-2-eno- yl)-1-oxo-2,7- diazaspiro[4.4] nonan-2-yl)ethyl)- 7-fluoro-1- methyl-2-oxo- 1,2,3,4,5,6-hexa- hydrobenzo[b] [1,4]diazocin-3- yl)amino)-6-meth- yl-4-(trifluoro- methyl)nicotino- nitrile [Example 47]
1.3e+06		C=CC(=O)N1CC(c2noc(CN3CC[C@H](Nc4nc(C)cc(C(F)(F)F)c4C#N)C(=O)N(C)c4cccc(F)c43)n2)C1 [Example 67, (S)-2-((6-((3-(1-Acryloylazetidin-3-yl)-1,2,4-oxadiazol-5-yl)methyl)-7-fluoro-1-methyl-2-oxo-1,2,3,4,5,6-hexahydrobenzo[b][1,4]diazocin-3-yl)amino)-6-methyl-4-(trifluoromethyl)nicotinonitrile]
360000		C=CC(=O)N1CC2(CN(CC(O)CN3CC[C@H](Nc4nc(C)cc(C(F)(F)F)c4C#N)C(=O)N(C)c4ccccc43)C2)C1 (stereo partly drawn) [Example 36, 2-(((3S)-6-(3-(6-Acryloyl-2,6-diazaspiro[3.3]heptan-2-yl)-2-hydroxypropyl)-1-methyl-2-oxo-1,2,3,4,5,6-hexahydrobenzo[b][1,4]diazocin-3-yl)amino)-6-methyl-4-(trifluoromethyl)nicotinonitrile]
	190000	(S)-2-((6-(2-(3-(4-Acrylo- ylpiperazin-1-yl)azetidin- 1-yl)ethyl)-7-fluoro-1- methyl-2-oxo-1,2,3,4,5,6- hexahydrobenzo[b][1,4] diazocin-3-yl)amino)-6- methyl-4-(trifluorometh- yl)nicotinonitrile [Example 10]

Molecule	kinact/KI (read-out: Kinact/KI) [M⁻¹ s⁻¹]	kinact/KI [M⁻¹ s⁻¹]
C=CC(=O)N1CC2(CN(CCN3CC[C@H](Nc4nc(C)cc(C(F)(F)F)c4C#N)C(=O)N(C)c4cccc(F)c43)C[C@H]3COCCN32)C1 [Example 62, 2-(((S)-6-(2-((S)-1-Acryloyltetrahydro-1′H-spiro[azetidine-3,6′-pyrazino[2,1-c][1,4]oxazin]-8′(7′H)-yl)ethyl)-7-fluoro-1-methyl-2-oxo-1,2,3,4,5,6-hexahydrobenzo[b][1,4]diazocin-3-yl)amino)-6-methyl-4-(trifluoromethyl)nicotinonitrile]	1.8e+06	
